Laboratory results published in US20240148707A1, “MODULATION OF DRUG-DRUG INTERACTIONS OF VADADUSTAT” (Akebia Therapeutics, Inc., priority 2021, published 2024).
Where two headings read alike, the source gives them in different places.

How the values were obtained:
normal rat = assay: Blood erythropoietin concentration increasing action; type: in vivo; conditions: single oral administration
normal rats = assay: Hemoglobin concentration and red blood cell count after repeated dosing; type: in vivo, rat; conditions: repeated oral administration for 14 days
[1] = Plasma pharmacokinetics, repeated once-daily administration to healthy adult men; type: in vivo, human; conditions: first day of administration
[2] = [14C]-labeled Compound 1 metabolism and excretion study in healthy adult males; type: in vivo, human
Excerpt: The urinary excretion rate of this drug and acyl glucuronide is less than 1% of the total radioactivity.

[3] = tested on: UGT1A1, UGT1A7, UGT1A8 and UGT1A9; assay: UGT isoforms generating the O-glucuronide (in vitro); type: in vitro ADME, human
CYP2B6 = target: T1, CYP2B6 (Homo sapiens, UniProt P20813); assay: Enzyme inhibition (in vitro); type: in vitro ADME
T1 sequence (P20813 1-491): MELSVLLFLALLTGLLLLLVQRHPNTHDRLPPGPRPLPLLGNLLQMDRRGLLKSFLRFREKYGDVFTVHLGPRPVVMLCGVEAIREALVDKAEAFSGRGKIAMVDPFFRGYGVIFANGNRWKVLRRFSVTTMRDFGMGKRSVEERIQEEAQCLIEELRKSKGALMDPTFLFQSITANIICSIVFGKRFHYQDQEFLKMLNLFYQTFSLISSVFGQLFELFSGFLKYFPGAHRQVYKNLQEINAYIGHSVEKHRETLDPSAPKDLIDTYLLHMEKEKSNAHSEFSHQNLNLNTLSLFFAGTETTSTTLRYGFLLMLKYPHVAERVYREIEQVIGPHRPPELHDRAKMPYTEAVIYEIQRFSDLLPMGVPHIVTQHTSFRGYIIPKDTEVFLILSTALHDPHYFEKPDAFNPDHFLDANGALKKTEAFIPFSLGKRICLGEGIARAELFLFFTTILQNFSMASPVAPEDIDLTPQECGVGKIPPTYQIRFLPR

CYP2C8 = target: T2, CYP2C8 (Homo sapiens, UniProt P10632); assay: Enzyme inhibition (in vitro); type: in vitro ADME
T2 sequence (P10632 1-490): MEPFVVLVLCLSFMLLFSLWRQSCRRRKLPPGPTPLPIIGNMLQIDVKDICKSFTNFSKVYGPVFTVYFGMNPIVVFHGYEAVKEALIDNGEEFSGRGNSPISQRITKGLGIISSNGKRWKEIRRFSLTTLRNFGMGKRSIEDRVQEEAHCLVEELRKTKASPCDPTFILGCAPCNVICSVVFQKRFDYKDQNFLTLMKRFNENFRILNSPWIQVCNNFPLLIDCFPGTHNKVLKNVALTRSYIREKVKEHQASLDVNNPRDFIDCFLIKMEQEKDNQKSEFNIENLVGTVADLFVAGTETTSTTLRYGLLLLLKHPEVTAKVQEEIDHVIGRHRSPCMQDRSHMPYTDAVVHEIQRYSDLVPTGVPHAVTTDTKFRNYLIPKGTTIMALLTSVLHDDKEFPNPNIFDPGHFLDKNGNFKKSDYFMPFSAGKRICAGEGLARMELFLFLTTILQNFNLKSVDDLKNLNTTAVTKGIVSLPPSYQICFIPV

CYP2C9 = CYP2C9 (Homo sapiens, UniProt P11712); assay: Enzyme inhibition (in vitro); type: in vitro ADME
CYP2C9, sequence (P11712 whole entry): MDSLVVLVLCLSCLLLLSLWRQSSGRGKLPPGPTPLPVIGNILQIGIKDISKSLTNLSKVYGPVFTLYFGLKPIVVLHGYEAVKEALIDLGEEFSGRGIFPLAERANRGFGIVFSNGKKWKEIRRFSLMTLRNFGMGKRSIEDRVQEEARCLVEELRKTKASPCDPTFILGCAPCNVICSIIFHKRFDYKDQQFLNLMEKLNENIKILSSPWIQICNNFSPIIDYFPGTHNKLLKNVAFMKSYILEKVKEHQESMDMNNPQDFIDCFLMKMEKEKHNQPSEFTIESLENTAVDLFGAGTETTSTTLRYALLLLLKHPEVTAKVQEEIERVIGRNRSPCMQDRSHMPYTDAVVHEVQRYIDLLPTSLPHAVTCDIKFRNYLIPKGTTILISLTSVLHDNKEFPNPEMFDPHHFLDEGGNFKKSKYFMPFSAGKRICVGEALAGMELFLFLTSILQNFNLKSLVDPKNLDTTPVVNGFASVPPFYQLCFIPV

UGT1A1 = target: T3, UGT1A1 (Homo sapiens, UniProt P22309); assay: Enzyme inhibition (in vitro); type: in vitro ADME
T3 sequence (P22309 26-533): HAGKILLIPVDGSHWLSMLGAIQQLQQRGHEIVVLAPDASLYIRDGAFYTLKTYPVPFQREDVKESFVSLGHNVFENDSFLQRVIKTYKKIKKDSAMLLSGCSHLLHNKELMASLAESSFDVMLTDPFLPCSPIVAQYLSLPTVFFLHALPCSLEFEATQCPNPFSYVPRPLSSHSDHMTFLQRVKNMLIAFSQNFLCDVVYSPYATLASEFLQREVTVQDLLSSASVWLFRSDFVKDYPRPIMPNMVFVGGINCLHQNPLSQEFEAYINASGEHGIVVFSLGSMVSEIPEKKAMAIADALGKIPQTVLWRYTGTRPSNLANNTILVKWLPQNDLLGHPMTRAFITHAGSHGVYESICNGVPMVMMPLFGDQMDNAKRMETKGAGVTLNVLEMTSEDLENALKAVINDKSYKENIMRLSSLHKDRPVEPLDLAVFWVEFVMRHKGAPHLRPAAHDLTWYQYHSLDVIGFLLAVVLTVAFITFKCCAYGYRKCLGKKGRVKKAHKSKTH

[4] = Phase III clinical trial in patients with hemodialysis anemia; type: in vivo, human
Protocol: The incidence of adverse reactions when this drug was administered up to 24 weeks was 8.3% (2/24 cases).

[5] = Phase I drug-drug interaction study with probenecid (Part 1, Arm 2); type: in vivo, human; conditions: for AUC(0-inf) / AUC(0-t) / Cmax: both sexes, human, plasma, fasted
Protocol: A phase I, open-label, 2-part study was conducted in healthy male and female subjects to evaluate the potential for interaction of cyclosporine (Part 1, Arm 1), probenecid (Part 1, Arm 2), and rifampin (Part 2) with vadadustat.
On the morning of Day 1, subjects received a single oral dose of vadadustat (300 mg) as 2×150 mg tablets after at least a 10-hour overnight fast and remained fasted for at least 4 hours post-dose. Following a 2-day washout (Days 1 to 2), subjects received 1 oral probenecid 500 mg tablet Q12 h for 4 days (Days 3 to 6). On days that probenecid was administered alone (Days 3, 4, and 6), probenecid was administered in a fasted state 1 hour prior to a standard breakfast and 1 hour prior to an evening meal or snack. On Day 5, probenecid was co-administered with a single dose of vadadustat (300 mg as 2×150 mg tablets) following at least a 10-hour fast. Subjects remained fasted for at least 4 hours after dosing.
On days vadadustat was administered (Day 1 and Day 5), blood samples for PK analysis were collected up to 48 hours postdose. In addition, on vadadustat dosing days, pooled urine samples were collected up to 24 hours post-dose. Subjects were discharged from the CRU on the morning of Day 7, after the final 48-hour post-dose PK sample had been collected. A follow-up phone call was conducted 30 days±2 days after the final dose.

O=C(O)CNC(=O)c1ncc(-c2cccc(Cl)c2)cc1O [Compound 1, {[5-(3-chlorophenyl)-3-hydroxypyridine-2-carbonyl]amino}acetic acid]
blood erythropoietin levels (normal rat): elevated blood erythropoietin levels | hemoglobin concentration (normal rats): increasing | red blood cell count (normal rats): increasing | Tmax ([1]; 300 mg once a day): 1.95 h | t1/2 ([1]; 300 mg once a day): 6.14 ± 0.763 h | Tmax ([1]; 600 mg once a day): 1.98 h | share of the total radioactivity (AUC0-∞) in plasma ([2]; healthy adult male (6), single oral 650 mg [14C]-labeled Compound 1): 75% | total radioactivity administered recovered in urine ([2]; single dose 650 mg [14C]-labeled, by 72 hours after administration): 58.9% | UGT isoforms involved in the generation of the O-glucuronide [3]: UGT1A1, UGT1A7, UGT1A8 and UGT1A9 | inhibitory effect on CYP2B6 (CYP2B6): inhibitory effect | inhibitory effect on CYP2C8 (CYP2C8): inhibitory effect | inhibitory effect on CYP2C9 (CYP2C9): inhibitory effect | inhibitory effect on UGT1A1 (UGT1A1): inhibitory effect | incidence of adverse reactions ([4]; administered up to 24 weeks (2/24 cases)): 8.3% | hemoglobin level before administration ([4]; baseline, 23 people, mean ± standard deviation): 9.30 ± 0.67 | AUC(0-inf) ([5]; oral, vadadustat 300 mg single dose + probenecid 500 mg Q12h (multiple doses), read-out: AUCinf, geometric LSM, Treatment V + P): 427 µg·h/mL | AUC(0-t) ([5]; oral, vadadustat 300 mg single dose + probenecid 500 mg Q12h (multiple doses), read-out: AUClast, geometric LSM, Treatment V + P): 417 µg·h/mL | Cmax ([5]; oral, vadadustat 300 mg single dose + probenecid 500 mg Q12h (multiple doses), read-out: Cmax, geometric LSM, Treatment V + P): 48800 ng/mL | AUC(0-inf) ([5]; vadadustat 300 mg alone, single oral dose, read-out: AUCinf, geometric LSM, Treatment V): 234 µg·h/mL | AUC(0-t) ([5]; vadadustat 300 mg alone, single oral dose, read-out: AUClast, geometric LSM, Treatment V): 233 µg·h/mL | Cmax ([5]; vadadustat 300 mg alone, single oral dose, read-out: Cmax, geometric LSM, Treatment V): 47500 ng/mL | tolerability ([5]; during treatment with probenecid, healthy subjects): tolerated | change of Cmax values ([5]; in combination with probenecid): relatively unchanged | urinary excretion ([5]; in combination with probenecid): decreased
